Experimental data as given in publication PMC10714399, “Open Source Antibiotics: Simple Diarylimidazoles Are Potent against Methicillin-Resistant Staphylococcus aureus” (ACS Infectious Diseases, 2023).
Converted amounts (≈) assume the structure as drawn. Like-named read-outs stand apart in the source and are kept apart here.

Columns and labels:
[1] = tested on: Staphylococcus aureus NCTC 13373 (mecA-positive; methicillin-resistant); assay: In vitro antibacterial activity, MIC (UCL School of Pharmacy assay), MRSA; type: cell-based; settings: for MIC: Staphylococcus aureus
Experimental: (§1) Staphylococcus aureus NCTC 13373 (mecA-positive; methicillin-resistant, NCTC 13373) was supplied by the National Collection of Type Cultures (NCTC), Public Health England, United Kingdom. Other organisms, S. aureus ATCC 25923 (methicillin-susceptible) and Enterococcus faecalis ATCC 51299 (vanA-positive; vancomycin-resistant), were obtained from the American Type Culture Collection (ATCC) via LGC Standards, UK. A suspension of each organism was prepared from an overnight plate culture (tryptone soya agar) in phosphate-buffered saline (PBS) and adjusted to an absorbance reading at 600 nm of 0.1, which is approximately equivalent to 1 × 10^8 colony-forming units (CFU) per mL. The cultures were further diluted 1:100 in isosensitest broth (Oxoid, United Kingdom) before 100 μL was used to inoculate each well of a 96-well plate that contained diluted samples of the OSA series. Compounds were evaluated over a 2-fold dilution range from 32 to 0.03 μg/mL. Stocks of the samples were prepared in 100% DMSO at […] before being diluted in isosenstitest broth. The highest concentration of DMSO present was 2%, which has been previously shown not to inhibit the growth of the microorganisms (data not shown). […] Vancomycin was used as a quality control compound.

[2] = tested on: Enterococcus faecalis ATCC 51299 (vanA-positive; vancomycin-resistant); assay: In vitro antibacterial activity, MIC (UCL), VRE; type: cell-based
Experimental: as §1

## CN(C)Cc1ccc2nc(-c3ccccn3)c(Nc3cccc(F)c3)n2c1 [OSA_000844]
[1]; UCL, read-out: MRSA MIC (UCL)
  MIC: > 32 µg/mL
[2]; read-out: VRE MIC (UCL)
  MIC: > 32 µg/mL

## c1ccc(-c2nc3ncccn3c2-c2ccc3occc3c2)nc1 [compound 863]
[1]
  MRSA MIC: > 32 µg/mL
[2]
  VRE MIC: > 32 µg/mL

## FC(F)(F)Oc1ccc(-c2c(-c3ccccn3)nc3n2CCC3)cc1 [compound 868]
[1]; read-out: MRSA MIC
  MIC: 8 µg/mL (≈ 23.2 µM)
[2]; read-out: VRE MIC
  MIC: 32 µg/mL (≈ 92.7 µM)

## Cc1ccn2c(NC3CCCC3)c(-c3ccc(N(C)C)cc3)nc2c1 [compound 840]
[1]
  MRSA MIC: > 32 µg/mL
[2]
  VRE MIC: > 32 µg/mL

## Cc1ccccc1-c1c(-c2ccccn2)nc2n1CCC2 [compound 977]
[1]; read-out: MRSA MIC
  MIC: 32 µg/mL (≈ 116 µM)
[2]; read-out: VRE MIC
  MIC: 32 µg/mL (≈ 116 µM)

## CC(=O)c1ccc(-c2c(-c3ccccn3)nc3n2CCC3)cc1 [compound 973]
[1]
  activity against MRSA, in words: not tolerated
[1]; read-out: MRSA MIC
  MIC: > 32 µg/mL
[2]; read-out: VRE MIC
  MIC: > 32 µg/mL

## Cc1ccc2nc(-c3ccccn3)c(Nc3ccc4c(c3)OCCO4)n2c1 [OSA_000841]
[1]; UCL, read-out: MRSA MIC (UCL)
  MIC: 8 µg/mL (≈ 22.3 µM)
[2]; read-out: VRE MIC (UCL)
  MIC: 16 µg/mL (≈ 44.6 µM)

## Cc1ccccc1-c1c(-c2ccccn2)nc2n1CCC2 [OSA_000977]
[1]; UCL, read-out: MRSA MIC (UCL)
  MIC: 32 µg/mL (≈ 116 µM)
[2]; read-out: VRE MIC (UCL)
  MIC: 32 µg/mL (≈ 116 µM)

## Cn1ccnc1-c1nc2ccccn2c1Nc1ccc(F)cc1 [OSA_000847]
[1]; UCL, read-out: MRSA MIC (UCL)
  MIC: > 32 µg/mL
[2]; read-out: VRE MIC (UCL)
  MIC: > 32 µg/mL

## COc1ccc(-c2nc3ccc(C)cn3c2NCc2ccco2)cc1OC [OSA_000849]
[1]; UCL, read-out: MRSA MIC (UCL)
  MIC: > 32 µg/mL
[2]; read-out: VRE MIC (UCL)
  MIC: > 32 µg/mL

## c1ccn2c(NC3CCCC3)c(-c3nccs3)nc2c1 [compound 845]
[1]
  MRSA MIC: > 32 µg/mL
[2]
  VRE MIC: > 32 µg/mL

## COc1ccn2c(Nc3ccnc(C)c3)c(-c3ccccn3)nc2c1 [OSA_000854]
[1]; UCL, read-out: MRSA MIC (UCL)
  MIC: > 32 µg/mL
[2]; read-out: VRE MIC (UCL)
  MIC: > 32 µg/mL

## COc1ccn2c(Nc3ccnc(C)c3)c(-c3ccccn3)nc2c1 [compound 854]
[1]
  MRSA MIC: > 32 µg/mL
[2]
  VRE MIC: > 32 µg/mL

## COCc1ccc2nc(-c3ccccn3)c(Nc3cccc(F)c3)n2c1 [OSA_000852]
[1]; UCL, read-out: MRSA MIC (UCL)
  MIC: > 32 µg/mL
[2]; read-out: VRE MIC (UCL)
  MIC: > 32 µg/mL

## COc1ccc(-c2nc3ccc(C)cn3c2NCc2ccco2)cc1OC.Cl [compound 849]
[1]
  MRSA MIC: > 32 µg/mL
[2]
  VRE MIC: > 32 µg/mL

## CN(C)Cc1ccc2nc(-c3ccccn3)c(Nc3cccc(F)c3)n2c1 [compound 844]
[1]
  MRSA MIC: > 32 µg/mL
[2]
  VRE MIC: > 32 µg/mL

## COc1ccn2c(Nc3cccc(F)c3)c(-c3cn(C)cn3)nc2c1 [OSA_000848]
[1]; UCL, read-out: MRSA MIC (UCL)
  MIC: > 32 µg/mL
[2]; read-out: VRE MIC (UCL)
  MIC: > 32 µg/mL

## c1ccc(-c2nc3ccccn3c2N2CCOCC2)nc1 [OSA_000850]
[1]; UCL, read-out: MRSA MIC (UCL)
  MIC: > 32 µg/mL
[2]; read-out: VRE MIC (UCL)
  MIC: > 32 µg/mL

## COc1ccn2c(Nc3ccc(F)cn3)c(-c3ccccn3)nc2c1.O=CO [compound 839]
[1]
  MRSA MIC: 16 µg/mL
[2]
  VRE MIC: > 32 µg/mL

## COc1ccc2nc(-c3c[nH]cn3)c(Nc3ccc4c(c3)OCCO4)n2c1 [OSA_000867]
[1]; UCL, read-out: MRSA MIC (UCL)
  MIC: > 32 µg/mL
[2]; read-out: VRE MIC (UCL)
  MIC: > 32 µg/mL

## c1ncc(-c2nc3n(c2-c2ccc4occc4c2)CCC3)cn1 [OSA_000874]
[1]; UCL, read-out: MRSA MIC (UCL)
  MIC: > 32 µg/mL
[2]; read-out: VRE MIC (UCL)
  MIC: > 32 µg/mL

## COc1ccn2c(Nc3cccc(F)c3)c(-c3cscn3)nc2c1 [OSA_000843]
[1]; UCL, read-out: MRSA MIC (UCL)
  MIC: > 32 µg/mL
[2]; read-out: VRE MIC (UCL)
  MIC: > 32 µg/mL

## Cc1ccn2c(NC3CCCC3)c(-c3ccc(N(C)C)cc3)nc2c1 [OSA_000840]
[1]; UCL, read-out: MRSA MIC (UCL)
  MIC: > 32 µg/mL
[2]; read-out: VRE MIC (UCL)
  MIC: > 32 µg/mL

## COc1ccn2c(Nc3ccc(F)cn3)c(-c3ccccn3)nc2c1 [OSA_000839]
[1]; UCL, read-out: MRSA MIC (UCL)
  MIC: 16 µg/mL (≈ 47.7 µM)
[2]; read-out: VRE MIC (UCL)
  MIC: > 32 µg/mL

## COc1ccn2c(Nc3ccc4c(c3)OCCO4)c(-c3c[nH]cn3)nc2c1 [OSA_000866]
[1]; UCL, read-out: MRSA MIC (UCL)
  MIC: > 32 µg/mL
[2]; read-out: VRE MIC (UCL)
  MIC: > 32 µg/mL

## COc1ccn2c(Nc3cccc(F)c3)c(-c3cscn3)nc2c1.O=CO [compound 843]
[1]
  MRSA MIC: > 32 µg/mL
[2]
  VRE MIC: > 32 µg/mL
